How the values were obtained:
[1] = cited from earlier work
IL-1β [2] = experiment: THP-1 cell assay analysed by ELISA, MSU replaced with LPS, IL-1β production; assay type: cell-based; details: THP-1 cells, normalized to vehicle
Experimental: (§1) THP-1 cells were cultured in RPMI with 10% FCS, penicillin, streptomycin, glutamine and pyruvate. At day −1, 1.5×10^6 THP-1 cells were plated in 24 well plates. These cells were cultured in the presence or absence of 5 μM phorbol 12-myristate 13-acetate (PMA) for three hours. PMA is required for NALP-3 inflammasome activation and IL-1β production in response to MSU crystals. On day 0, medium was replaced in all wells. Cells were then pre-incubated with vehicle control, test substance at three concentrations, or diclofenac control (10 μg/ml) for 4 hours. MSU crystals were then added (0.5 mg/mL) Supernatants were harvested for ELISA after 16 hours. ELISA was conducted to determine inhibition of IL-1β expression. It has been reported that this cytokine is a pivotal regulator of the inflammatory response to MSU crystals (Chen et al 2006 and Martinon et al 2006). Inhibition of IL-8 expression was also determined.
The results are shown in Table 2 below and in FIGS. 1 and 2. Table 3 contrasts the result for GMP when the MSU was replaced with a different antigen, LPS. The casein hydrolysate tested was produced by extensively hydrolysing casein (to a degree of hydrolysis of 33%) using the enzymes pancreatin and corolase. […]

IL-1β [3] = experiment: THP-1 cell assay analysed by ELISA, MSU crystal-stimulated IL-1β release; assay type: cell-based; details: THP-1 cells
Experimental: as §1
(§2) A mean change in cytokine expression from cells treated with control vehicle pooled data from all experiments (10 μg/ml). Values represent mean (standard error) from at least three experiments in which cytokine release from wells treated with the highest concentration of milk extract has been normalized to vehicle treated wells.
(§3) The results are shown in Table 2 below and in FIGS. 1 and 2. Table 3 contrasts the result for GMP when the MSU was replaced with a different antigen, LPS. […]

urate peritonitis model = experiment: Murine urate peritonitis model, total cellular influx; assay type: in vivo, CD1 mice; details: mice fed for a week before i.p. 3 mg MSU crystals; lavage after four hours; GMP 0.05-0.5 g per kg in drinking water; G600 precursor 12.5-100% of total fat in diet
Experimental: Adult male CD1 mice (Vernon Jansen Unit, University of Auckland) were housed in conventional facilities with temperature control and 12 hour light/dark cycles. All protocols involving live animals were subjected to ethical review and a range of welfare score sheets and action plans were used to monitor and minimize the impact of the study on the animals. Mice were fed milk extracts for a week prior to induction of peritonitis. At least eight mice were used for each experimental condition. GMP was dissolved in drinking water at 0.05, 0.1, 0.25 and 0.5 g per kg mouse. The G600™ milk fat extract precursor (Batch 2, freeze dried, no added lactose) was incorporated into rodent chow at 12.5, 25, 50 and 100% of total fat in diet.
The murine urate peritonitis protocol was based on the model described by Getting et al (1997). Adult male CD1 mice weighing 22-28 g were selected for the urate peritonitis model. Mice were anaesthetized using urethane. Peritonitis was induced by intraperitoneal injection of 3 mg MSU crystals resuspended in 250 μl PBS. The body temperature of anaesthetized mice was monitored and maintained at 37° C. using a heat pad, and hydration was maintained by subcutaneous injection of 0.9% NaCl (Normal Saline) at a volume of […] body weight two hours after initial treatments and every hour thereafter. […]

IL-8 = experiment: THP-1 cell assay analysed by ELISA, MSU crystal-stimulated IL-8 release; assay type: cell-based; details: THP-1 cells, PMA, 4 h pre-incubation, MSU crystals 0.5 mg/mL, supernatant after 16 h; highest concentration of test substance; mean of at least three experiments; * p<0.05 vs vehicle
Experimental: as §1, §2, §3

IL-1β gene expression = experiment: THP-1 cell assay analysed by RT-PCR, IL-1β gene expression; assay type: cell-based; details: THP-1 cells, treatment as in Example 1 (FIG. 5)
Excerpt: THP-1 assays were used to study IL-1β and IL-8 gene expression by RT-PCR, using the same treatment protocols as described for the THP-1 ELISA assay in Example 1 above and the RT-PCR protocol described in Dalbeth et al, 2008.

| Compound | adverse effects ([1]; all patients, within 24 hours of taking this medication) | reduction in pain in joints ([1]; gout patients, within 48 hours) [%] | LPS-stimulated IL-1β production (IL-1β [2]) | IL-1β (cytokine release normalized to vehicle treated wells) (IL-1β [3]; PMA, 4 h pre-incubation, MSU crystals 0.5 mg/mL, supernatant after 16 h, highest concentration of test substance, mean of at least three experiments, * p<0.05 vs vehicle) | MSU crystal-stimulated IL-1β production (IL-1β [3]; normalized to vehicle, * p<0.05) | total cellular influx in the urate peritonitis model (urate peritonitis model) | IL-8 (cytokine release normalized to vehicle treated wells) (IL-8) | IL-1β gene expression (IL-1β gene expression) |
| --- | --- | --- | --- | --- | --- | --- | --- | --- |
| COc1cc2c(c(OC)c1OC)-c1ccc(OC)c(=O)cc1[C@@H](NC(C)=O)CC2 [colchicine, Colchicine] | developed diarrhoea and/or vomiting | 50 | – | – | – | – | – | – |
| Glycomacropeptide [GMP] | – | – | 0.94 | 0.72* | 0.72* | significant inhibition | 1.22 | inhibits |
